Each structure is given as a SMILES string. Entries after “also recorded” stand apart in the source; their conditions may differ.

The test system of assay [1] is ACE-2. The format is in vivo, rat.
Protocol: Groups 1 and 2 were not subjected to an exercise routine. Groups 3-8 were subjected to an exercise regimen consisting of a week training period with an incremental exercise capacity described below. After the week training period the exercise regimen followed was each rat in Groups 3-8 were subjected to 6 weeks of running at 25 m/min during 45 min every day. […] These correspond to 0, 250, 500, 1000, 2000 and 4000 mg per day for humans, respectively.
After the 6-week exercise regimen was completed, muscle, lung, plasma and liver tissue samples were taken from these rats. The ACE-2 analysis of the tissue samples are subjected to the following test.
To determine the protein accumulation in the liver, muscle and lung samples, a Western Blotting test was used. Each of the tissue samples of the same group were pooled, homogenized, and sonicated in lysis buffer supplemented with 1X protease and phosphatase inhibitor cocktail (#5872, Cell Signaling). Total protein content was detected with Qubit 2.0 Fluorometer according to the manufacturer’s protocol (Invitrogen, Life Technologies Corporation, Carlsbad, CA, USA). Equal amounts of protein (20 µg) were size-fractionated using any-kD Mini-Protean TGX gel electrophoresis and then transferred to a nitrocellulose membrane using the Trans-Blot Turbo Transfer System (Bio-Rad, Life Sciences Research). Thereafter, membranes were blocked in 5% nonfat milk in Tris-buffered saline (TBS) containing 0.1% Tween (TBS-T; blocking solution) for 1 h at room temperature, washed in TBS-T, and incubated overnight with ACE-2 (Abcam, Cambridge, UK). The following day, membranes were washed with TBS-T and then incubated with horseradish peroxidase-conjugated goat anti-rabbit (Abcam, Cambridge, UK) or goat anti-mouse (Abcam, Cambridge, UK) secondary antibody (diluted 1:1000) for 1 h. Individual blots were performed at least three times. Protein loading was controlled by stripping and re-probing the nitrocellulose membrane with an anti-β-actin antibody (Abcam, Cambridge, UK). Protein levels were analyzed densitometrically using an image analysis system (Image J; National Institute of Health, Bethesda, MD, USA), corrected with values determined on β-actin blots and expressed as relative values compared with the control group.
To determine the mRNA expression levels of ACE-2 in the liver, lung and muscle samples a total RNA extraction and specific mRNA quantification was conducted by reverse transcription-polymerase chain reaction (RT-qPCR). Gene expressions were done by quantitative polymerase chain reaction (qPCR). […]
Another assay relates to Furin. In words: Furin protein and mRNA in rat tissue samples. In kind it is in vivo. Conditions: exercised rats. An excerpt: After a week of the adaptation period, the rats were divided into eight equal groups containing seven rats each. The initial body weights of the rats were similar in all the groups (214.53 grams ± 4.67; P > 0.05).
Groups 1 and 2 were not subjected to an exercise routine. Groups 3-8 were subjected to an exercise regimen consisting of a week training period with an incremental exercise capacity described below. After the week training period the exercise regimen followed was each rat in Groups 3-8 were subjected to 6 weeks of running at 25 m/min during 45 min […]. […] These correspond to 0, 250, 500, 1000, 2000 and 4000 mg per day for humans, respectively.
To determine the protein accumulation in the liver, muscle and lung samples, a Western Blotting test was used. Each of the tissue samples of the same group were pooled, homogenized, and sonicated in lysis buffer supplemented with 1X protease and phosphatase inhibitor cocktail (#5872, Cell Signaling). Total protein content was detected with Qubit 2.0 Fluorometer according to the manufacturer’s protocol (Invitrogen, Life Technologies Corporation, Carlsbad, CA, USA). […] Protein levels were analyzed densitometrically using an image analysis system (Image J; National Institute of Health, Bethesda, MD, USA), corrected with values determined on β-actin blots and expressed as relative values compared with the control group. […]

The subject of assay [2] is ACE-2. Kind of assay: Human study, serum ELISA, ACE-2. In kind it is in vivo. The procedure: (§1) A human study was run with a total of 80 healthy male and female subjects ranging from 21 to 65 years of age, who were active (i.e. 30 minutes per day of moderate activity, 3 days per week) are randomized into two groups. […] Seventy-three subjects completed the trial and biomarker data were analyzed from the sera of the 73 completers. Sera were collected for analysis of C-Reactive Protein (CRP), ACE 1, ACE 2, TMPRSS 2, the Tumor Necrosis Factor alpha (TNF-alpha), and Furin at baseline in the beginning of the trial, at week 5 and 48 hr after an exercise challenge as described (Clinicaltrials.gov NCT04420377). The exercise challenge serves as surrogate to the inflammation stimulus.
(§2) To obtain human sera, venous blood was extracted by venipuncture of the antecubital vein using a 21-gauge syringe and collected into a 10 mL EDTA vacutainer tube (BD Vacutainer®, Becton, Dickinson and Company, Franklin Lakes, NJ) by a certified phlebotomist. […] Human ACE-1, ACE-2, TMPRSS2, Furin, CRP and TNF-alpha protein levels were assessed using commercially available ELISA kits, according the manufacturer recommendations, ACE-1 (R&D systems Inc., Minneapolis, MN, USA), ACE-2 (RayBiotech inc., Peachtree Corners, GA), TMPRSS2 (Novus Biologicals, Littleton, CO), CRP (R&D Systems Inc., Minneapolis, MN), TNF-alpha (Novus Biologicals, Littleton, CO), and Furin (Sigma Aldrich, St. Louis, MO). […]
(An ELISA detects its analyte on a solid surface through an enzyme-linked reagent.)

A further assay has as its system TMPRSS2. Kind of assay: Rat plasma serum ELISA, TMPRSS2. In kind it is in vivo. As to conditions: exercised rats, FIG. 5D.
A further assay has as its system ACE-1. Kind of assay: Human study, serum ELISA, ACE-1. Conditions: 2 g daily L-carnitine tartrate, 5 weeks, before or after exercise challenge. The format is in vivo. The procedure:
as §1, §2

Regarding `C[N+](C)(C)C[C@H](O)CC(=O)[O-]` [L-carnitine], the “dose of maximum effect on ACE-2, TMPRSS2 and Furin levels” value in the assay with ACE-2 [1] (exercised rats, oral, 6 weeks) was 200 mg/kg. Moreover, the “ACE-2 mRNA levels” value in the assay on ACE-2 [1] (exercised rats, tissues, versus exercise control) was “dose-dependent decrease”. Further, the ACE-2 protein level result with ACE-2 [1] (exercised rats, western blotting) is “return to the baseline control”. For the same compound, the ACE-2 levels result in the assay with ACE-2 [1] (rats without exercise (inflammation), 200 mg/kg) is “does not affect these receptors”. The “Furin mRNA levels” value in the assay with Furin (tissues, versus exercise control) is “dose-dependent decrease”. For the same compound, the Furin protein level entry in the assay with Furin (western blotting) was “return to the baseline control”. For the same compound, in the assay on ACE-2 [2] (2 g daily, 5 weeks, 48 hours after exercise challenge, versus placebo), the ACE-2 serum levels result is “significant decrease”. In addition, the “decrease in ACE-2” value in the assay on ACE-2 [2] (group A, from baseline compared to Wk5, p=0.046) is recorded as 8%. In addition, in the assay with TMPRSS2, the “serum TMPRSS2” value is “controlling TMPRSS2”. Moreover, in the assay with ACE-1, the ACE-1 serum levels result is “no significant effect; also recorded: no significant interaction or main effect”.

These data come from US20230346735A1, “Nutritional Composition Comprising Carnitine and Method for Treating or Preventing an Infection in a Mammal” (priority 2020, published 2023).
